The source made the active and inactive calls. No cut-off for these calls is given here.
What was measured:
dengue virus type 2 [1] = assay: Antiviral activity against DENV-2 EDEN 3295 infected in 10^5 human Huh-7 cells at 0.3 MOI for 1 hr followed by compound treatment for 48 hrs; assay type: functional, organism-based; conditions: EDEN 3295, Huh-7
[2] = Cytotoxicity against human Huh-7 cells treated for 48 hrs measured by celltitre-glo luminescent assay; assay type: toxicity, cell-based
[3] = Selectivity index, ratio of CC50 for human Huh-7 cells to EC50 for antiviral activity against DENV-2 EDEN 3295; assay type: toxicity; conditions: read-out: Ratio CC50/EC50
dengue virus type 2 [4] = assay: Inhibition of DENV-2 NS5 polymerase incubated for 1 hr measured at 30 uM by fluorescence based alkaline phosphate coupled polymerase assay
dengue virus type 2 [5] = assay: Antiviral activity against DENV-2 EDEN 3295 infected in 10^5 human Huh-7 cells at 0.3 MOI for 1 hr followed by compound treatment at 10 uM for 48 hrs relative to control; assay type: functional
dengue virus type 2 [6] = assay: (§1) Inhibition of DENV-2 NS5 polymerase incubated for 1 hr measured by fluorescence based alkaline phosphate coupled polymerase assay
dengue virus type 2 [7] = assay: Antiviral activity against DENV-2 infected in human Huh-7 cells at MOI 1 assessed as reduction of intracellular viral titre at 10 uM, 2 hr prior to infection measured after 48 hrs measured by RT-PCR analysis; assay type: functional, organism-based; conditions: time 50.0 hrs
dengue virus type 2 [8] = assay: Antiviral activity against DENV-2 infected in human Huh-7 cells at MOI 1 assessed as reduction of intracellular viral titre at 10 uM during infection measured after 48 hrs measured by RT-PCR analysis; assay type: functional, organism-based
dengue virus type 2 [9] = assay: Antiviral activity against DENV-2 infected in human Huh-7 cells at MOI 1 assessed as reduction of intracellular viral titre at 10 uM measured after 2 hrs post infection by RT-PCR analysis; assay type: functional, organism-based
dengue virus type 2 [10] = assay: Antiviral activity against DENV-2 infected in human Huh-7 cells at MOI 1 assessed as reduction of intracellular viral titre at 10 uM measured after 24 hrs post infection by RT-PCR analysis; assay type: functional, organism-based
dengue virus type 2 [11] = assay: Antiviral activity against DENV-2 infected in human Huh-7 cells at MOI 1 assessed as log reduction of intracellular viral titre at 10 uM measured after 60 hrs post infection by RT-PCR analysis; assay type: functional
dengue virus type 2 [12] = assay: Antiviral activity against DENV-2 infected in human Huh-7 cells assessed as reduction of viral protein NS3 expression at 10 uM for 12 hrs post infection by RT-PCR analysis; assay type: functional, organism-based
dengue virus type 2 [13] = assay: Antiviral activity against DENV-2 infected in human Huh-7 cells assessed as reduction of viral protein NS5 expression at 10 uM for 12 hrs post infection by RT-PCR analysis; assay type: functional, organism-based
dengue virus type 2 [14] = assay: Antiviral activity against DENV-2 infected with asian tiger mosquito C6/36 cells; assay type: functional, organism-based
dengue virus type 2 [15] = assay: Antiviral activity against DENV-2 infected with hamster BHK-21 cells; assay type: functional, organism-based
dengue virus type 2 [16] = assay: Antiviral activity against DENV-2 infected with green monkey Vero cells; assay type: functional, organism-based
dengue virus type 2 [17] = assay: Antiviral activity against DENV-2 infected with human Calu-1 cells; assay type: functional, organism-based
dengue virus type 2 [18] = assay: Antiviral activity against DENV-2 infected with human A549 cells; assay type: functional, organism-based
[19] = Cytotoxicity against asian tiger mosquito C6/36 cells; assay type: toxicity, cell-based; conditions: aedes albopictus
[20] = Cytotoxicity against hamster BHK-21 cells; assay type: toxicity, cell-based, Mesocricetus auratus
[21] = Cytotoxicity against green monkey Vero cells; assay type: toxicity, cell-based; conditions: chlorocebus sabaeus
[22] = Cytotoxicity against human Huh-7 cells; assay type: toxicity, cell-based
[23] = Cytotoxicity against human Calu-1 cells; assay type: toxicity, cell-based
[24] = Cytotoxicity against human A549 cells; assay type: toxicity, cell-based
[25] = as §1; design: species or system dengue virus type 2

Row | Structure (SMILES) | EC50 (dengue virus type 2 [1]) | CC50 at 48 h [2] | selectivity ratio [3] | Activity (dengue virus type 2 [5]) | other results
1 | O=C(NCc1ccc(F)c(F)c1)c1cc(Oc2cccc(Br)c2)ccc1NS(=O)(=O)c1cccc2cccnc12 | 5.6 µM | > 100 µM | > 17.8 |  | 
2 | CCc1cccc(Oc2ccc(NS(C)(=O)=O)c(C(=O)NCc3ccc(F)c(F)c3)c2)c1 | 33.9 µM | 41.1 µM | 1.21 |  | inhibition (dengue virus type 2 [4]): inactive
3 | COc1ccc(NS(=O)(=O)c2cccc3cccnc23)c(C(=O)NCc2ccccc2)c1 | 4.8 µM | > 100 µM | > 20.8 |  | 
4 | O=C(NCc1ccccc1)c1cc(Oc2ccccc2)ccc1NS(=O)(=O)c1cccc2cccnc12 | 3.9 µM | > 100 µM | > 25.4 |  | 
5 | CCCOc1ccc(NS(=O)(=O)c2cccc3ccccc23)c(C(=O)NCc2ccccc2)c1 |  |  |  | 0% | 
6 | O=C(NCc1ccccc1)c1cc(F)ccc1NS(=O)(=O)c1cccc2cccnc12 |  |  |  | 0% | 
7 | O=C(NCc1ccccc1)c1cc(Oc2cccc(Br)c2)ccc1NS(=O)(=O)c1cccc2cccnc12 | 7.3 µM | > 100 µM | > 13.6 |  | 
8 | O=C(NCc1ccccc1)c1cc(Oc2cccc(Br)c2)ccc1NS(=O)(=O)c1ccc2c(c1)CCO2 |  |  |  | 32.5% | 
9 | C#C[C@@]1(O)[C@H](O)[C@@H](CO)O[C@H]1n1ccc2c(N)ncnc21 | 0.23 µM |  | 434 |  | 
10 | CCCOc1ccc(NS(=O)(=O)c2cccc3cccnc23)c(C(=O)NCCc2ccccc2)c1 | 2.2 µM | > 100 µM | > 45.5 |  | 
11 | CCCOc1ccc(NS(=O)(=O)c2cccc3cccnc23)c(C(=O)NCCN2CCCCC2)c1 |  |  |  | 20% | 
12 | O=C(Nc1ccccc1)c1cc(Oc2cccc(Br)c2)ccc1NS(=O)(=O)c1cccc2cccnc12 | 4.4 µM | 64.7 µM | 14.7 |  | 
13 | CCc1cccc(Oc2ccc(NS(=O)(=O)c3cccc4cccnc34)c(C(=O)NCc3ccc4c(c3)OCO4)c2)c1 | 5.9 µM | > 100 µM | > 16.9 |  | 
14 | O=C(NCc1ccccc1)c1cc(Oc2cccc(Br)c2)ccc1NS(=O)(=O)N1CCOCC1 |  |  |  | 0% | 
15 | CS(=O)(=O)Nc1ccc(Oc2cccc(Br)c2)cc1C(=O)NCc1ccc(F)c(F)c1 | 42.6 µM | 40.3 µM |  |  | inhibition (dengue virus type 2 [4]): inactive
16 | CCCOc1ccc(NC(=O)c2cccc3cccnc23)c(C(=O)NCc2ccccc2)c1 | 5.6 µM | > 100 µM | > 17 |  | 
17 | CCCOc1ccc(NS(=O)(=O)c2cccc3cccnc23)c(C(=O)NC2CCCc3ccccc32)c1 (stereo not drawn) | 1.9 µM | > 100 µM | > 52.6 |  | 
18 | O=C(NCc1ccccc1)c1cc(Oc2cccc(Br)c2)ccc1NS(=O)(=O)c1cccs1 |  |  |  | 0% | 
19 | COc1ccc(C(=O)NCc2ccccc2)c(NS(=O)(=O)c2cccc3cccnc23)c1 |  |  |  | 0% | 
20 | CS(=O)(=O)Nc1ccc(Oc2cccc(Br)c2)cc1C(=O)NCc1ccccc1 | 47.5 µM | 66.4 µM | 1.39 |  | inhibition (dengue virus type 2 [4]): inactive

Row | Structure (SMILES) | EC50 (dengue virus type 2 [1]) | CC50 at 48 h [2] | selectivity ratio [3] | Activity (dengue virus type 2 [5]) | other results
21 | CCCOc1ccc(NS(=O)(=O)c2cccc3cccnc23)c(C(=O)N2CCc3ccccc3C2)c1 | 6.1 µM | > 100 µM | > 16.4 |  | 
22 | CCCOc1cc(C(=O)NCc2ccccc2)ccc1NS(=O)(=O)c1cccc2cccnc12 |  |  |  | 0% | 
23 | NC(=O)c1cc(Oc2cccc(Br)c2)ccc1NS(=O)(=O)c1cccc2cccnc12 |  |  |  | 27.5% | 
24 | CCCOc1ccc(NS(=O)(=O)c2cccc3cccnc23)c(C(=O)NC2CCC2)c1 | 2.5 µM | > 100 µM | > 40 |  | 
25 | O=C(NCc1ccccc1)c1cc(Oc2cccc(Br)c2)ccc1NS(=O)(=O)c1ccc(F)c(F)c1 | 12.5 µM | 44.5 µM | 3.56 |  | 
26 | COc1ccc(CNC(=O)c2cc(Oc3cccc(Br)c3)ccc2NS(=O)(=O)c2cccc3cccnc23)cc1OC |  |  |  | 50% | 
27 | CCCOc1ccc(NS(=O)(=O)c2cccc3cccnc23)c(C(=O)NCCCc2ccccc2)c1 | 3.9 µM | > 100 µM | > 25.6 |  | 
28 | O=C(NCc1ccccc1)c1cc(OCC2CCCCC2)ccc1NS(=O)(=O)c1cccc2cccnc12 |  |  |  | 45% | 
29 | COc1ccc(CNC(=O)c2cc(Oc3cccc(Br)c3)ccc2NS(C)(=O)=O)cc1OC | 48.8 µM | 100 µM | 2.05 |  | inhibition (dengue virus type 2 [4]): inactive
30 | O=C(NCc1ccccc1)c1ccccc1NS(=O)(=O)c1cccc2cccnc12 |  |  |  | 0% | 
31 | CCCOc1ccc(NS(=O)(=O)c2cccc3cccnc23)c(C(=O)NCc2ccccc2)c1 |  | > 100 µM |  |  | inhibition (dengue virus type 2 [6]): inactive; Activity (dengue virus type 2 [7]): inactive; Activity (dengue virus type 2 [8]): inactive; Activity (dengue virus type 2 [9]): Active; Activity (dengue virus type 2 [10]): Active; log(activity) (dengue virus type 2 [11]): 3; Activity (dengue virus type 2 [12]): Active; Activity (dengue virus type 2 [13]): Active; EC50 (dengue virus type 2 [14]): > 10 µM; EC50 (dengue virus type 2 [15]): 20 µM; EC50 (dengue virus type 2 [16]): 1.09 µM; EC50 (dengue virus type 2 [17]): 0.18 µM; EC50 (dengue virus type 2 [18]): 1.38 µM; CC50 [19]: > 100 µM; CC50 [20]: > 25 µM; CC50 [21]: > 25 µM; CC50 [22]: > 100 µM; CC50 [23]: > 100 µM; CC50 [24]: > 100 µM
32 | CCCOc1ccc(NS(=O)(=O)c2cccc3cccnc23)c(C(=O)NC(CC)CC)c1 | 2.2 µM | > 100 µM | > 45 |  | 
33 | O=C(OC1=CS(=O)(=O)Nc2ccc(Oc3ccccc3Br)cc21)c1ccc(F)c(F)c1 |  |  |  |  | IC50 [25]: 18.4 µM
34 | CCc1cccc(Oc2ccc(NS(C)(=O)=O)c(C(=O)N[C@H](C)c3ccccc3)c2)c1 | 17.9 µM | 51.1 µM | 2.85 |  | inhibition (dengue virus type 2 [4]): inactive
35 | CCc1cccc(Oc2ccc(NS(=O)(=O)c3cccc4cccnc34)c(C(=O)NCc3ccccc3)c2)c1 | 3 µM | > 100 µM | > 32.8 |  | 
36 | CCCOc1ccc(NS(=O)(=O)c2cccc3cccnc23)c(C(=O)N(CC)Cc2ccccc2)c1 |  |  |  | 25% | 
37 | CCc1cccc(Oc2ccc(NS(C)(=O)=O)c(C(=O)NCc3ccccc3)c2)c1 | 44.9 µM | 78.6 µM | 1.75 |  | inhibition (dengue virus type 2 [4]): inactive
38 | O=C(NCc1ccccc1)c1cc(Oc2cccc(Br)c2)ccc1NS(=O)(=O)c1cccnc1 |  |  |  | 12.5% | 
39 | CCCOc1ccc(NS(=O)(=O)c2cccc3cccnc23)c(C(=O)NC2CC2)c1 | 8.7 µM | > 100 µM | > 11 |  | 

Source: ChEMBL document CHEMBL5346936, “Functionalized sulfonyl anthranilic acid derivatives inhibit replication of all the four dengue serotypes” (Eur J Med Chem, 2023)
